This note sets out measurements from US8846933B2, “N-link hydroxamic acid derivatives useful as antibacterial agents” (Pfizer Inc., priority 2009, dated 2014).

A value given as a limit tells only on which side of the number the result lay.

Test [1] relates to Pseudomonas aeruginosa UI-18: Wild-type (PA-7). Briefly: MIC determination (CLSI), strain PA-7. In kind it is cell-based. Particulars: strain PA-7; unit assumed. In a few lines: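 Strain tested was P. aeruginosa UI-18, a wild-type isolate labelled PA-7. Minimum inhibitory concentrations followed CLSI dilution methodology for aerobically growing bacteria (M7-A7, M100-S18).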
Test [2] deals with Escherichia coli EC-1: VOGEL, mouse virulent. Put plainly: MIC determination (CLSI), strain EC-1. The class given is cell-based. The following applies: strain EC-1; unit assumed. In a few lines: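 The mouse-virulent VOGEL isolate of E. coli, EC-1, served as test organism. Minimum inhibitory concentration was measured by CLSI dilution methodology (M7-A7; M100-S18 standards).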

In turn, `Cc1nnn(-c2ccc(-c3ccn(CC[C@](C)(C(=O)NO)S(C)(=O)=O)c(=O)c3)cc2)c1C` [Example 416, (2R)-4-{4-[4-(4,5-dimethyl-1H-1,2,3-triazol-1-yl)phenyl]-2-oxopyridin-1(2H)-yl}-N-hydroxy-2-methyl-2-(methylsulfonyl)butanamide] came in with a PA-7 (MIC) in test [1] of 32 µg/mL. This molecule showed an EC-1 (MIC) in test [2] of 64 µg/mL.

`C[C@@](CCn1ccc(-c2ccc(-c3ncno3)cc2)cc1=O)(C(=O)NO)S(C)(=O)=O` [Example 417, (2R)-N-hydroxy-2-methyl-2-(methylsulfonyl)-4-{4-[4-(1,2,4-oxadiazol-5-yl)phenyl]-2-oxopyridin-1(2H)-yl}butanamide] displayed a PA-7 (MIC) in test [1] of 64 µg/mL. This molecule also registered an EC-1 (MIC) in test [2] of 8 µg/mL.

Regarding `C[C@@](CCn1ccc(-c2ccc(CO)nc2)cc1=O)(C(=O)NO)S(C)(=O)=O` [Example 418, (2R)-N-hydroxy-4-[6-(hydroxymethyl)-2′-oxo-3,4′-bipyridin-1′(2′H)-yl]-2-methyl-2-(methylsulfonyl)butanamide], the PA-7 (MIC) in test [1] is 64 µg/mL. Moreover, the EC-1 (MIC) in test [2] was over 64 µg/mL.

`C[C@@](CCn1ccc(-c2ccc(-c3ncns3)cc2)cc1=O)(C(=O)NO)S(C)(=O)=O` [Example 419, (2R)-N-hydroxy-2-methyl-2-(methylsulfonyl)-4-{2-oxo-4-[4-(1,2,4-thiadiazol-5-yl)phenyl]pyridin-1(2H)-yl}butanamide] came in with a PA-7 (MIC) in test [1] of 1 µg/mL. The EC-1 (MIC) in test [2] amounted to 0.25 µg/mL.

In test [1], `Cc1cnc(N2CC=C(c3ccn(CC[C@](C)(C(=O)NO)S(C)(=O)=O)c(=O)c3)CC2)nc1` [Example 420, (2R)-N-hydroxy-2-methyl-4-[1′-(5-methylpyrimidin-2-yl)-2-oxo-1′,2′,3′,6′-tetrahydro-4,4′-bipyridin-1(2H)-yl]-2-(methylsulfonyl)butanamide] displayed a PA-7 (MIC) of 8 µg/mL. In test [2], this molecule showed an EC-1 (MIC) of 4 µg/mL.

On to `C[C@@](CCn1ccc(-c2ccc(-n3cnnn3)cc2)cc1=O)(C(=O)NO)S(C)(=O)=O` [Example 421, (2R)-N-hydroxy-2-methyl-2-(methylsulfonyl)-4-{2-oxo-4-[4-(1H-tetrazol-1-yl)phenyl]pyridin-1(2H)-yl}butanamide], for which the PA-7 (MIC) in test [1] was found to be 64 µg/mL. The EC-1 (MIC) in test [2] was over 64 µg/mL.

In test [1], `Cc1cccc(-c2ccc(-c3ccn(CC[C@](C)(C(=O)NO)S(C)(=O)=O)c(=O)c3)cc2)n1` [Example 422, (2R)-N-hydroxy-2-methyl-4-{4-[4-(6-methylpyridin-2-yl)phenyl]-2-oxopyridin-1(2H)-yl}-2-(methylsulfonyl)butanamide] registered a PA-7 (MIC) of 4 µg/mL. In addition, the EC-1 (MIC) in test [2] came to 0.5 µg/mL.

In the case of `C[C@@](CCn1ccc(-c2ccc(-c3cncnc3)cc2)cc1=O)(C(=O)NO)S(C)(=O)=O` [Example 423], the PA-7 (MIC) in test [1] is 4 µg/mL. Also, the EC-1 (MIC) in test [2] was found to be 1 µg/mL.

In turn, `C[C@@](CCn1ccc(-c2ccc(Oc3ncccn3)cc2)cc1=O)(C(=O)NO)S(C)(=O)=O` [Example 424, (2R)-N-hydroxy-2-methyl-2-(methylsulfonyl)-4-{2-oxo-4-[4-(pyrimidin-2-yloxy)phenyl]pyridin-1(2H)-yl}butanamide] registered a PA-7 (MIC) in test [1] of 4 µg/mL. Further, in test [2], the EC-1 (MIC) turned out to be 4 µg/mL.

With `C[C@@](CCn1ccc(-c2ccc(Oc3ccccc3C#N)cc2)cc1=O)(C(=O)NO)S(C)(=O)=O` [Example 426, (2R)-4-{4-[4-(2-cyanophenoxy)phenyl]-2-oxopyridin-1(2H)-yl}-N-hydroxy-2-methyl-2-(methylsulfonyl)butanamide], the PA-7 (MIC) in test [1] worked out at 1 µg/mL. In test [2], this molecule returned an EC-1 (MIC) of 0.25 µg/mL.

Consider `C[C@@](CCn1ccc(-c2ccc(Oc3ncccc3C#N)cc2)cc1=O)(C(=O)NO)S(C)(=O)=O` [Example 427, (2R)-4-[4-{4-[(3-cyanopyridin-2-yl)oxy]phenyl}-2-oxopyridin-1(2H)-yl]-N-hydroxy-2-methyl-2-(methylsulfonyl)butanamide], for which the PA-7 (MIC) in test [1] came out at 2 µg/mL. Moreover, in test [2], the EC-1 (MIC) amounted to 2 µg/mL.

In test [1], `C[C@@](CCn1ccc(-c2ccc(Oc3cc(Cl)ccn3)cc2)cc1=O)(C(=O)NO)S(C)(=O)=O` [Example 428, (2R)-4-[4-{4-[(4-chloropyridin-2-yl)oxy]phenyl}-2-oxopyridin-1(2H)-yl]-N-hydroxy-2-methyl-2-(methylsulfonyl)butanamide] gave a PA-7 (MIC) of 1 µg/mL. In test [2], this molecule displayed an EC-1 (MIC) of 0.125 µg/mL.

`C[C@@](CCn1ccc(-c2ccc(Oc3ccc(Cl)cn3)cc2)cc1=O)(C(=O)NO)S(C)(=O)=O` [Example 430, (2R)-4-[4-{4-[(5-chloropyridin-2-yl)oxy]phenyl}-2-oxopyridin-1(2H)-yl]-N-hydroxy-2-methyl-2-(methylsulfonyl)butanamide]: the PA-7 (MIC) in test [1] was 2 µg/mL. The same molecule gave an EC-1 (MIC) in test [2] of 0.125 µg/mL.

`C[C@@](CCn1ccc(-c2ccc(Oc3ccccn3)cc2)cc1=O)(C(=O)NO)S(C)(=O)=O` [Example 436, (2R)-N-hydroxy-2-methyl-2-(methylsulfonyl)-4-{2-oxo-4-[4-(pyridin-2-yloxy)phenyl]pyridin-1(2H)-yl}butanamide] gave a PA-7 (MIC) in test [1] of 2 µg/mL. Moreover, in test [2], the EC-1 (MIC) stood at 0.5 µg/mL.

In turn, `C[C@@](CCn1ccc(-c2ccc(Oc3nccc4occc34)cc2)cc1=O)(C(=O)NO)S(C)(=O)=O` [Example 437, (2R)-4-{4-[4-(furo[3,2-c]pyridin-4-yloxy)phenyl]-2-oxopyridin-1(2H)-yl}-N-hydroxy-2-methyl-2-(methylsulfonyl)butanamide] came in with a PA-7 (MIC) in test [1] of 4 µg/mL. This molecule showed an EC-1 (MIC) in test [2] of 0.25 µg/mL.

Consider `Cc1ccc(C#N)c(Oc2ccc(-c3ccn(CC[C@](C)(C(=O)NO)S(C)(=O)=O)c(=O)c3)cc2)n1` [Example 438, (2R)-4-[4-{4-[(3-cyano-6-methylpyridin-2-yl)oxy]phenyl}-2-oxopyridin-1(2H)-yl]-N-hydroxy-2-methyl-2-(methylsulfonyl)butanamide], for which the PA-7 (MIC) in test [1] came to 8 µg/mL. The molecule also yielded an EC-1 (MIC) in test [2] of 4 µg/mL.

Turning to `C[C@@](CCn1ccc(-c2ccc(Oc3ncccc3Cl)cc2)cc1=O)(C(=O)NO)S(C)(=O)=O` [Example 440, (2R)-4-[4-{4-[(3-chloropyridin-2-yl)oxy]phenyl}-2-oxopyridin-1(2H)-yl]-N-hydroxy-2-methyl-2-(methylsulfonyl)butanamide], in test [1], the PA-7 (MIC) was 2 µg/mL. In test [2], this molecule registered an EC-1 (MIC) of 0.06 µg/mL.

Turning to `C[C@@](CCn1ccc(-c2ccc(Oc3cccnc3C#N)cc2)cc1=O)(C(=O)NO)S(C)(=O)=O` [Example 442, (2R)-4-[4-{4-[(2-cyanopyridin-3-yl)oxy]phenyl}-2-oxopyridin-1(2H)-yl]-N-hydroxy-2-methyl-2-(methylsulfonyl)butanamide], in test [1], the PA-7 (MIC) amounted to 4 µg/mL. Also, the EC-1 (MIC) in test [2] was determined as 4 µg/mL.

Regarding `C[C@@](CCn1ccc(-c2ccc(Oc3ccnc4ccccc34)cc2)cc1=O)(C(=O)NO)S(C)(=O)=O` [Example 444], in test [1], the PA-7 (MIC) worked out at 2 µg/mL. The molecule also returned an EC-1 (MIC) in test [2] of 0.125 µg/mL.

For the molecule `C[C@@](CCn1ccc(-c2ccc(Oc3nc4ccccc4s3)cc2)cc1=O)(C(=O)NO)S(C)(=O)=O` [Example 445], the PA-7 (MIC) in test [1] came to 4 µg/mL. The molecule also yielded an EC-1 (MIC) in test [2] of 0.25 µg/mL.

`C[C@@](CCn1ccc(-c2ccc(Oc3noc4ccccc34)cc2)cc1=O)(C(=O)NO)S(C)(=O)=O` [Example 450, (2R)-4-{4-[4-(1,2-benzisoxazol-3-yloxy)phenyl]-2-oxopyridin-1(2H)-yl}-N-hydroxy-2-methyl-2-(methylsulfonyl)butanamide] gave a PA-7 (MIC) in test [1] of 2 µg/mL. This molecule also returned an EC-1 (MIC) in test [2] of 0.06 µg/mL.

Take `C[C@@](CCn1ccc(-c2cc(F)cc(Cl)c2Cl)cc1=O)(C(=O)NO)S(C)(=O)=O` [Example 451, (2R)-4-[4-(2,3-dichloro-5-fluorophenyl)-2-oxopyridin-1(2H)-yl]-N-hydroxy-2-methyl-2-(methylsulfonyl)butanamide]: in test [1], the PA-7 (MIC) turned out to be 4 µg/mL. Further, in test [2], the EC-1 (MIC) is 4 µg/mL.

Turning to `COc1ccc(-c2ccn(CC[C@](C)(C(=O)NO)S(C)(=O)=O)c(=O)c2)c(Cl)c1Cl` [Example 452, (2R)-4-[4-(2,3-dichloro-4-methoxyphenyl)-2-oxopyridin-1(2H)-yl]-N-hydroxy-2-methyl-2-(methylsulfonyl)butanamide], the PA-7 (MIC) in test [1] was 2 µg/mL. In test [2], this molecule displayed an EC-1 (MIC) of 4 µg/mL.

In turn, `C[C@@](CCn1ccc(-c2ccc(-c3cccnn3)cc2)cc1=O)(C(=O)NO)S(C)(=O)=O` [Example 453, (2R)-N-hydroxy-2-methyl-2-(methylsulfonyl)-4-[2-oxo-4-(4-pyridazin-3-ylphenyl)pyridin-1(2H)-yl]butanamide] yielded a PA-7 (MIC) in test [1] of 8 µg/mL. The molecule also came in with an EC-1 (MIC) in test [2] of 4 µg/mL.

In turn, `C[C@@](CCn1ccc(-c2ccc(-c3cnoc3)cc2)cc1=O)(C(=O)NO)S(C)(=O)=O` [Example 454, (2R)-N-hydroxy-4-[4-(4-isoxazol-4-ylphenyl)-2-oxopyridin-1(2H)-yl]-2-methyl-2-(methylsulfonyl)butanamide] registered a PA-7 (MIC) in test [1] of 4 µg/mL. Also, in test [2], the EC-1 (MIC) was 2 µg/mL.

In turn, `Cc1cnn(-c2ccc(-c3ccn(CCC(C)(C(=O)NO)S(C)(=O)=O)c(=O)c3)cc2)n1` (centres unmarked) [Example 455] came in with a PA-7 (MIC) in test [1] of 1 µg/mL. The EC-1 (MIC) in test [2] amounted to 0.06 µg/mL.

As to `Cc1ccc(-c2ccc(-c3ccn(CC[C@](C)(C(=O)NO)S(C)(=O)=O)c(=O)c3)cc2)cn1` [Example 456, (2R)-N-hydroxy-2-methyl-4-{4-[4-(6-methylpyridin-3-yl)phenyl]-2-oxopyridin-1(2H)-yl}-2-(methylsulfonyl)butanamide], the PA-7 (MIC) in test [1] was determined as 1 µg/mL. In test [2], this molecule showed an EC-1 (MIC) of 0.25 µg/mL.

Consider `Cc1cnc(-c2ccc(-c3ccn(CC[C@](C)(C(=O)NO)S(C)(=O)=O)c(=O)c3)cc2)cn1` [Example 457, (2R)-N-hydroxy-2-methyl-4-{4-[4-(5-methylpyrazin-2-yl)phenyl]-2-oxopyridin-1(2H)-yl}-2-(methylsulfonyl)butanamide], for which the PA-7 (MIC) in test [1] was determined as 2 µg/mL. In test [2], the EC-1 (MIC) is 0.5 µg/mL.
